According to patent US11440932B2, “Surfactant compounds-clips for extraction and stabilization in solution of membrane proteins” (CENTRE NATIONAL DE LA RECHERCHE SCIENTIFIQUE, priority 2017, dated 2022):
Non-standard residues stand in square brackets, D forms with d. Residues, ends and D or L forms follow the SMILES beside them. ξ: configuration not given here. *: point of attachment. Palmitoyl = CCCCCCCCCCCCCCCC(=O)*; Myristoyl = CCCCCCCCCCCCCC(=O)*; Lauroyl = CCCCCCCCCCCC(=O)*; Decanoyl = CCCCCCCCCC(=O)*; ξE = NC(CCC(=O)O)C(=O)O; ξD = NC(CC(=O)O)C(=O)O

Columns and labels:
BmrA = biological target: T1, BmrA (Bacillus subtilis, UniProt O06967); assay: Extraction of BmrA from membranes (SDS-PAGE of supernatant); set-up: species or system bacterial; overexpressed in E. coli C41DE3; conditions: detergent 10 g/l unless indicated otherwise; 2 h at 4° C.
T1 construct: His tag; made in house; host or cells: E. coli C41(DE3)
T1 sequence (O06967 whole entry): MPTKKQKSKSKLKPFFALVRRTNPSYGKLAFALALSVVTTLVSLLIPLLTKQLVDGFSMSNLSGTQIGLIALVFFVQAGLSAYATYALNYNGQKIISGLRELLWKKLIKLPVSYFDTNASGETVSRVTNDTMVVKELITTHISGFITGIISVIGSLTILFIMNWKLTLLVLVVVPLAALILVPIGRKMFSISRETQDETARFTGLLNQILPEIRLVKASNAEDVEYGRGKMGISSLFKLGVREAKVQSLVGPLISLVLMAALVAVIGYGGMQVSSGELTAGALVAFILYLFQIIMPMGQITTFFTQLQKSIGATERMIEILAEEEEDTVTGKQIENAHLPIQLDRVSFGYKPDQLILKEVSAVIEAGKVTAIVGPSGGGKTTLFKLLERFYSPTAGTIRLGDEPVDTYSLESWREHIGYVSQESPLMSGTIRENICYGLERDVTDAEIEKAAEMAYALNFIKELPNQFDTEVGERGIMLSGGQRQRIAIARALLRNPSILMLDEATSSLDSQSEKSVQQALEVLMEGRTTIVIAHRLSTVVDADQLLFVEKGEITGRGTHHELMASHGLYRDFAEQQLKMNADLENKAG
Description: (§1) FIG. 6 depicts the extraction of the membrane proteins BmrA (panels A and C) and AcrB (panels B and D) using commercial detergents and the molecules of the invention (panels A and B, from left to right): SDS, DDM, FC12, TX100, compounds of the invention 1.4, 1.5, 2.3a, 2.3b, 2.3c, 2.3d, 2.3e, 2.3f, 2.3g, 2.3h, 2.3i, 3.7a, 3.7b; panel C: compounds of the invention 3.7c 0.8%, 3.7d 0.16%, 3.7e 0.8%, 3.7f 0.3%, 3.7g 0.4%, 3.7h 0.2%, 3.7i 0.07%, 3.7j 0.09%, 3.7k, 3.7l, 0.25%, 3.9a, 4.5a, 4.5b, 4.5c, 4.5d 0.34%, 4.6a, 4.6b, 4.6c, 4.6d, 5.3a, 5.3b, 5.3c 0.3%, 5.3d 0.3%; panel D: 3.7c, 3.7d, 3.7e, 3.7f, 3.7h, 3.7i 0.1%, 3.7j, 3.7k, 3.7l, 3.9a, 4.5a, 4.5b, 4.5c, 4.5d, 4.6a, 4.6b, 4.6c, 4.6d. The detergents are added at 10 g/l (1%), unless indicated otherwise. The equivalent of 20 μg of proteins of the extracted fraction after centrifugation at 100 000×g for 30 min is deposited on 10% SDS-PAGE, stained with Coomassie blue after migration. BmrA migrates in its monomeric form to the level of the 55 kDa band; AcrB migrates in its monomeric form to the level of the 100 kDa band. SDS=sodium dodecyl sulfate; DDM=β-D-dodecyl maltoside; FC12=foscholine-12; TX100=triton X-100.
(§2) The extraction capacity of the detergents of the series is tested on membranes in which BmrA or AcrB are strongly expressed. The extraction with the clips (molecules of the invention) is compared to that obtained with commercial detergents, used as reference.
(§3) Procedure. BmrA represents 25% of the proteins present in the overexpression system used (E. coli, C41DE3). These membranes are prepared as described previously (Matar-Merheb, R. et al. ([11])). The membranes containing AcrB (approximately 20% of the membrane proteins, same expression system as BmrA) were prepared as described previously (Seeger, M. A. et al. ([21])). The detergents are used at 10 g/l unless indicated otherwise, and the proteins diluted at 2 g/l in a 20 mM Tris-HCl buffer, pH 8.0, 100 mM NaCl, 15% glycerol, with protease inhibitors (Roche) added thereto at an amount of one tablet/100 ml. The mixture (T) is incubated for 2 h at 4° C. then centrifuged for 1 h at 4° C. at 100 000×g in order to separate the extracted fraction (supernatant, S) from that which is not extracted (pellet). The supernatants are deposited on 10% SDS-PAGE and stained with Coomassie blue after migration. The foscholine 12, DDM and LMNG originate from Anatrace, the SDS and Triton X100 originate from Sigma-Aldrich.

[1] = Critical micelle concentration (CMC) by DPH fluorescence; assay type: physicochemical; conditions: 50 mM tris-HCl, pH 8.0
Description: FIG. 4 represents the fluorescence (%) of DPH (1,6-diphenyl-1,3,5-hexatriene) in the presence of increasing concentrations (0.0001 mM, 0.001 mM, 0.01 mM, 0.1 mM, 1 mM and 10 mM) of clips (compounds of the invention), exemplified with the compounds #3.7e (C13, points represented by squares) and 3.7f (C18, points represented by circles). The experiment is carried out in triplicates. In accordance with Chattopadhyay, A. & London, E ([22]), the CMC corresponds to the concentration at which the breakage in the slope is observed, here at 20 μM for 3.7f and 2 mM for 3.7e (black symbols).
Procedure. The molecules of the invention were prepared in a range of concentrations extending from 0.1 μM to 10 mM in 50 mM tris-HCl, pH 8.0 and neutralized at this pH. To 80 μl of each solution (triplicate), the same volume of 10 μM of 1,6-diphenyl-1,3,5-hexatriene (DPH, Sigma, D208000) is added, prepared at 100 μM in tetrahydrofuran then diluted 10-fold in H2O. The increase in the fluorescence of the DPH occurs when the latter find micelles of clips into which it can insert itself (Chattopadhyay, A. & London, E. Fluorimetric determination of critical micelle concentration avoiding interference from detergent charge. Anal Biochem 139, 408-412 (1984) ([22])). The fluorescence is read with a Xenius SAFAS fluorimeter by exciting at 358 nm and recording the fluorescence emission at 430 nm, with slits of 9 to 10 nm for the excitation and the emission and a gain of 100 to 150, depending on the cases.
Results. The CMC of the detergents is the concentration starting from which they associate with one another to form micelles, in which, in aqueous solution, the hydrophobic portions are grouped together at the center and the hydrophilic regions are exposed to the solvent. […] A typical result obtained with a compound 3.7 provided with a C13 (3.7e) or C18 ([…]) aliphatic chain is illustrated in FIG. 4.

AcrB = biological target: T2, AcrB (Escherichia coli, UniProt P31224); assay: Extraction of AcrB from membranes (SDS-PAGE of supernatant); set-up: species or system bacterial; same expression system (E. coli C41DE3); conditions: for selective extraction AcrB versus BmrA: comparison of extraction of AcrB and BmrA; for extraction of AcrB: detergent 10 g/l unless indicated otherwise, 2 h at 4° C.
T2 construct: made in house; host or cells: E. coli C41(DE3)
T2 sequence (P31224 whole entry): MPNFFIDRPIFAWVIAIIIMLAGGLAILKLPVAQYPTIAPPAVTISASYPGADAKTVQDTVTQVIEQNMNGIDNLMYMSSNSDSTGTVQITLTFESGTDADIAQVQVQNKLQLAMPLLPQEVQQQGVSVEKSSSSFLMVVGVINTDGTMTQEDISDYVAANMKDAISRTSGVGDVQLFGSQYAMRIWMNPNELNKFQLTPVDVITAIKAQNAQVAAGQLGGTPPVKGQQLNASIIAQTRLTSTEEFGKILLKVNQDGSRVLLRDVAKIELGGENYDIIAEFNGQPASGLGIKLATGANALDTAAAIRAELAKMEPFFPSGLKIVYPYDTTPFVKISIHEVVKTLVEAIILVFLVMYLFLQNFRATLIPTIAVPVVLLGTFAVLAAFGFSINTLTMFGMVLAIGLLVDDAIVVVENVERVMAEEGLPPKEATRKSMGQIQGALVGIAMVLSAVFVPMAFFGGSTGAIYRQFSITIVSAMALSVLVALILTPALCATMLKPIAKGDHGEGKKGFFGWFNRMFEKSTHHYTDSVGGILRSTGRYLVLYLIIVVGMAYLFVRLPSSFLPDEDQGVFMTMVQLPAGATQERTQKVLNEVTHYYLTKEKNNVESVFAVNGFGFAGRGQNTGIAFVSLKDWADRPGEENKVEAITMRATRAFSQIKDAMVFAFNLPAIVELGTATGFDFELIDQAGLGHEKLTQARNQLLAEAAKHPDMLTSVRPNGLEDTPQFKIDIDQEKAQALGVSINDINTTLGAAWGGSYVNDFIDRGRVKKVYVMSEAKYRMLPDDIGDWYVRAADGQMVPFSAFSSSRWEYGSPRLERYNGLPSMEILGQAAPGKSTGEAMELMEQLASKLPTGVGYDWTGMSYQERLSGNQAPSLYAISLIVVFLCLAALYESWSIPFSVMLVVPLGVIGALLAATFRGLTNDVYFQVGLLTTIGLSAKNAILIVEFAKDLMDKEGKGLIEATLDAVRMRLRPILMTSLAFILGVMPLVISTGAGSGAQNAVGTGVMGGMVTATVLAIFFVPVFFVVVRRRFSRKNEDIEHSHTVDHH
Description: as §1, §2, §3

CCCNC(=O)[C@H](CO)NCC(=O)O [Compound 1.4]
extraction of BmrA (BmrA): extracting

CCCNC(=O)[C@H](CO)N(CC(=O)O)CC(=O)O [Compound 1.5]
CMC [1]: 2.5 mM
extraction of BmrA (BmrA): partially extracting
selective extraction AcrB versus BmrA (AcrB): more effectively extract AcrB
extraction of AcrB (AcrB): extracting

CCCCCCCCCCCCCC(=O)N[C@@H](CO)C(=O)N[C@H](CCC(=O)O)C(=O)O [Compound 2.3a] (HELM PEPTIDE1{[CCCCCCCCCCCCCC(=O)[*:2]].S.[dE]}$$$$V2.0)
CMC [1]: 2 mM
extraction of BmrA (BmrA): extracting
extraction of AcrB (AcrB): extracting

CCCCCCCC(=O)N[C@@H](CO)C(=O)N[C@H](CCC(=O)O)C(=O)O [Compound 2.3b] (HELM PEPTIDE1{[CCCCCCCC(=O)[*:2]].S.[dE]}$$$$V2.0)
CMC [1]: 5 mM
extraction of BmrA (BmrA): non-extracting
extraction of AcrB (AcrB): extracting

CCCCCCCCC(=O)N[C@@H](CO)C(=O)N[C@H](CCC(=O)O)C(=O)O [Compound 2.3c] (HELM PEPTIDE1{[CCCCCCCCC(=O)[*:2]].S.[dE]}$$$$V2.0)
CMC [1]: 3.5 mM
extraction of BmrA (BmrA): non-extracting
extraction of AcrB (AcrB): extracting

CCCCCCCCCC(=O)N[C@@H](CO)C(=O)N[C@H](CCC(=O)O)C(=O)O [Compound 2.3d] (HELM PEPTIDE1{[CCCCCCCCCC(=O)[*:2]].S.[dE]}$$$$V2.0)
CMC [1]: 2 mM
extraction of BmrA (BmrA): extracting
extraction of AcrB (AcrB): extracting

CCCCCCCCCCCC(=O)N[C@@H](CO)C(=O)N[C@H](CCC(=O)O)C(=O)O [Compound 2.3e] (HELM PEPTIDE1{[CCCCCCCCCCCC(=O)[*:2]].S.[dE]}$$$$V2.0)
CMC [1]: 1 mM
extraction of AcrB (AcrB): extracting

CCCCCCCCCCCCC(=O)N[C@@H](CO)C(=O)N[C@H](CCC(=O)O)C(=O)O [Compound 2.3f]
CMC [1]: 0.8 mM
extraction of BmrA (BmrA): extracting
extraction of AcrB (AcrB): extracting

CCCCCCCCCCCCCC(=O)N[C@@H](CO)C(=O)N[C@H](CCC(=O)O)C(=O)O [Compound 2.3g] (HELM PEPTIDE1{[CCCCCCCCCCCCCC(=O)[*:2]].S.[dE]}$$$$V2.0)
extraction of BmrA (BmrA): extracting
extraction of AcrB (AcrB): extracting

CCCCCCCCCCCCCCCC(=O)N[C@@H](CO)C(=O)N[C@H](CCC(=O)O)C(=O)O [Compound 2.3h] (HELM PEPTIDE1{[CCCCCCCCCCCCCCCC(=O)[*:2]].S.[dE]}$$$$V2.0)
CMC [1]: 0.5 mM
extraction of BmrA (BmrA): extracting
extraction of AcrB (AcrB): extracting

[2H]C([2H])([2H])C([2H])([2H])C([2H])([2H])C([2H])([2H])C([2H])([2H])C([2H])([2H])C([2H])([2H])C([2H])([2H])C([2H])([2H])C([2H])([2H])C([2H])([2H])C(=O)N[C@@H](CO)C(=O)N[C@H](CCC(=O)O)C(=O)O [Compound 2.3i]
extraction of BmrA (BmrA): extracting
extraction of AcrB (AcrB): extracting

CCCCCCCCCC(=O)N[C@@H](COCc1cn(CCO[C@@H]2OC(CO)[C@@H](O)C(O)C2O)nn1)C(=O)N[C@H](CCC(=O)O)C(=O)O (stereo partly drawn) [Compound 3.7a]
CMC [1]: 2 mM
extraction of BmrA (BmrA): non-extracting
extraction of AcrB (AcrB): do not extract

CCCCCC(CCCCC)C(=O)N[C@@H](COCc1cn(CCO[C@@H]2OC(CO)[C@@H](O)C(O)C2O)nn1)C(=O)N[C@H](CCC(=O)O)C(=O)O (stereo partly drawn) [Compound 3.7i]
CMC [1]: 1 mM
extraction of BmrA (BmrA): non-extracting
extraction of AcrB (AcrB): do not extract

O=C(O)CC[C@@H](NC(=O)[C@H](COCc1cn(CCO[C@@H]2OC(CO)[C@@H](O)C(O)C2O)nn1)NC(=O)CCCCC1CCCCC1)C(=O)O (stereo partly drawn) [Compound 3.7k]
CMC [1]: 1 mM
extraction of BmrA (BmrA): non-extracting
extraction of AcrB (AcrB): do not extract

CCCCCCCCCC(=O)NC(CC(=O)O)C(=O)NC(CCC(=O)O)C(=O)O (stereo not drawn) [Compound 4.5a] (Decanoyl-Asp-Glu-OH; configuration not given here)
CMC [1]: 3 mM
extraction of BmrA (BmrA): non-extracting
extraction of AcrB (AcrB): partially extract

CCCCCCCCCCCC(=O)NC(CC(=O)O)C(=O)NC(CCC(=O)O)C(=O)O (stereo not drawn) [Compound 4.5b] (Lauroyl-Asp-Glu-OH; configuration not given here)
CMC [1]: 2 mM
extraction of BmrA (BmrA): partially extracting
extraction of AcrB (AcrB): extracting

CCCCCCCCCCCCCC(=O)NC(CC(=O)O)C(=O)NC(CCC(=O)O)C(=O)O (stereo not drawn) [Compound 4.5c] (Myristoyl-Asp-Glu-OH; configuration not given here)
CMC [1]: 1.5 mM
extraction of BmrA (BmrA): partially extracting
extraction of AcrB (AcrB): extracting

CCCCCCCCCCCCCCCC(=O)NC(CC(=O)O)C(=O)NC(CCC(=O)O)C(=O)O (stereo not drawn) [Compound 4.5d] (Palmitoyl-Asp-Glu-OH; configuration not given here)
CMC [1]: 1 mM
extraction of BmrA (BmrA): extracting
extraction of AcrB (AcrB): extracting

CCCCCCCCCC(=O)NC(CC(=O)NC(CCC(=O)O)C(=O)O)C(=O)NC(CCC(=O)O)C(=O)O (stereo not drawn) [Compound 4.6a] (Decanoyl-Asp(Glu)-Glu-OH; configuration not given here)
CMC [1]: 1 mM
extraction of BmrA (BmrA): non-extracting
extraction of AcrB (AcrB): do not extract

CCCCCCCCCCCC(=O)NC(CC(=O)NC(CCC(=O)O)C(=O)O)C(=O)NC(CCC(=O)O)C(=O)O (stereo not drawn) [Compound 4.6b] (Lauroyl-Asp(Glu)-Glu-OH; configuration not given here)
CMC [1]: 1 mM
selective extraction AcrB versus BmrA (AcrB): not extract, or only very slightly extract, AcrB, unlike BmrA

CCCCCCCCCCCCCC(=O)NC(CC(=O)N[C@@H](CCC(=O)O)C(=O)O)C(=O)NC(CCC(=O)O)C(=O)O (stereo partly drawn) [Compound 4.6c] (Myristoyl-[ξD](Glu)-[ξE]-OH)
CMC [1]: 1 mM
extraction of AcrB (AcrB): extracting

CCCCCCCCCCCCOP(=O)([O-])OCC[N+](C)(C)C [FC12, foscholine-12, reference compound]
extraction of BmrA (BmrA): effectively extracted
extraction of AcrB (AcrB): effectively extracted

CCCCCCCCCCCCOS(=O)(=O)[O-].[Na+] [SDS, sodium dodecyl sulfate, reference compound]
extraction of BmrA (BmrA): effectively extracted
extraction of AcrB (AcrB): effectively extracted

triton X-100 [TX100, reference compound]
extraction of BmrA (BmrA): solubilize
extraction of AcrB (AcrB): solubilize
